According to PMC5218480 (PLoS ONE, 2017):

System: MV-4-11 cells
Experiment: Gene expression microarray analysis (Affymetrix PrimeView) and GSEA
Assay type: cell-based, human
Design: RFU PODN (11730768_x_at) / Fold change /veh PODN (11730768_x_at) / RFU LINC00158 (11744669_a_at) / Fold change /veh LINC00158 (11744669_a_at) / RFU DUSP10 (11751237_a_at) / Fold change /veh DUSP10 (11751237_a_at) / RFU ID3 (11757404_x_at) / Fold change /veh ID3 (11757404_x_at) / RFU PLEKHG5 (11737974_s_at) / Fold change /veh PLEKHG5 (11737974_s_at) / RFU LRRC4B (11730491_at) / Fold change /veh LRRC4B (11730491_at) / RFU GIMAP4 (11747438_a_at) / Fold change /veh GIMAP4 (11747438_a_at) / RFU KRT8 (11758183_x_at) / Fold change /veh KRT8 (11758183_x_at) / RFU CNN1 (11734310_a_at) / Fold change /veh CNN1 (11734310_a_at) / RFU VPS37D (11726825_at) / Fold change /veh VPS37D (11726825_at) / RFU C10orf10 (11716522_x_at) / Fold change /veh C10orf10 (11716522_x_at) / RFU KIR2DL2 /// KIR2DL4 /// KIR2DL5A /// KIR2DL5B /// KIR2DS1 /// KIR2DS2 /// KIR2DS3 /// KIR2DS4 /// KIR3DL3 /// KIR3DL3 /// KIR3DS1 (11738374_at) / Fold change /veh KIR2DL2 /// KIR2DL4 /// KIR2DL5A /// KIR2DL5B /// KIR2DS1 /// KIR2DS2 /// KIR2DS3 /// KIR2DS4 /// KIR3DL3 /// KIR3DL3 /// KIR3DS1 (11738374_at) / RFU C1QL1 (11718748_at) / Fold change /veh C1QL1 (11718748_at) / RFU TMPRSS4 (11747572_a_at) / Fold change /veh TMPRSS4 (11747572_a_at) / RFU HAMP (11756126_x_at) / Fold change /veh HAMP (11756126_x_at) / RFU RNFT2 (11725882_a_at) / Fold change /veh RNFT2 (11725882_a_at) / RFU NR4A2 (11747474_a_at) / Fold change /veh NR4A2 (11747474_a_at) / RFU ABCC12 (11746883_a_at) / Fold change /veh ABCC12 (11746883_a_at) / RFU TMEM136 (11760407_x_at) / Fold change /veh TMEM136 (11760407_x_at) / RFU CLDN22 /// WWC2 (11732394_at) / Fold change /veh CLDN22 /// WWC2 (11732394_at) / RFU HLA-DPB1 (11760878_x_at) / Fold change /veh HLA-DPB1 (11760878_x_at) / RFU SPINT1 (11716480_a_at) / Fold change /veh SPINT1 (11716480_a_at) / RFU GAP43 (11754022_s_at) / Fold change /veh GAP43 (11754022_s_at) / RFU A4GNT (11735810_at) / Fold change /veh A4GNT (11735810_at) / RFU PRB3 (11715151_x_at) / Fold change /veh PRB3 (11715151_x_at) / RFU TUBB4B (11761932_at) / Fold change /veh TUBB4B (11761932_at) / RFU CAPN14 (11732068_a_at) / Fold change /veh CAPN14 (11732068_a_at) / RFU TMCC2 (11721928_a_at) / Fold change /veh TMCC2 (11721928_a_at) / RFU IRGQ (11745062_a_at) / Fold change /veh IRGQ (11745062_a_at) / RFU FAM174B (11720279_a_at) / Fold change /veh FAM174B (11720279_a_at) / RFU TMPRSS4 (11748680_a_at) / Fold change /veh TMPRSS4 (11748680_a_at) / RFU FAM212B (11763350_a_at) / Fold change /veh FAM212B (11763350_a_at) / RFU PLEKHG5 (11743358_a_at) / Fold change /veh PLEKHG5 (11743358_a_at) / RFU ZSCAN30 (11745921_a_at) / Fold change /veh ZSCAN30 (11745921_a_at) / RFU CMKLR1 (11741424_a_at) / Fold change /veh CMKLR1 (11741424_a_at) / RFU LOC101060620 /// MAPK8IP1 (11723275_at) / Fold change /veh LOC101060620 /// MAPK8IP1 (11723275_at) / RFU SPTSSB (11747773_x_at) / Fold change /veh SPTSSB (11747773_x_at) / RFU PRSS12 (11739890_at) / Fold change /veh PRSS12 (11739890_at) / RFU BIN1 (11741810_x_at) / Fold change /veh BIN1 (11741810_x_at) / RFU WNT11 (11732464_a_at) / Fold change /veh WNT11 (11732464_a_at) / RFU C10orf10 (11716521_a_at) / Fold change /veh C10orf10 (11716521_a_at) / RFU C5orf56 (11738089_at) / Fold change /veh C5orf56 (11738089_at) / RFU CYB561 (11721691_x_at) / Fold change /veh CYB561 (11721691_x_at) / RFU ANKRD19P (11752326_a_at) / Fold change /veh ANKRD19P (11752326_a_at) / RFU OR2T12 /// OR2T33 /// OR2T8 (11738714_s_at) / Fold change /veh OR2T12 /// OR2T33 /// OR2T8 (11738714_s_at) / RFU VCAN (11748164_a_at) / Fold change /veh VCAN (11748164_a_at) / RFU JSRP1 (11732532_at) / Fold change /veh JSRP1 (11732532_at) / RFU KRTAP10-11 (11738290_x_at) / Fold change /veh KRTAP10-11 (11738290_x_at) / RFU MYO3A (11730013_a_at) / Fold change /veh MYO3A (11730013_a_at) / RFU EBF3 (11725865_a_at) / Fold change /veh EBF3 (11725865_a_at) / RFU CAMK2N1 (11719241_x_at) / Fold change /veh CAMK2N1 (11719241_x_at) / RFU C5orf56 (11738088_a_at) / Fold change /veh C5orf56 (11738088_a_at) / RFU OLFML3 (11715873_a_at) / Fold change /veh OLFML3 (11715873_a_at) / RFU LOC100653217 /// NTM (11731650_a_at) / Fold change /veh LOC100653217 /// NTM (11731650_a_at) / RFU MAPK11 (11762145_a_at) / Fold change /veh MAPK11 (11762145_a_at) / RFU FIZ1 (11724087_x_at) / Fold change /veh FIZ1 (11724087_x_at) / RFU OASL (11726364_x_at) / Fold change /veh OASL (11726364_x_at) / RFU SOX15 (11748057_x_at) / Fold change /veh SOX15 (11748057_x_at) / RFU CD79A (11719716_a_at) / Fold change /veh CD79A (11719716_a_at) / RFU HIST1H1D (11736915_at) / Fold change /veh HIST1H1D (11736915_at) / RFU CASKIN2 (11723855_a_at) / Fold change /veh CASKIN2 (11723855_a_at) / RFU LOC730098 (11760151_x_at) / Fold change /veh LOC730098 (11760151_x_at) / RFU OR4N2 (11742367_at) / Fold change /veh OR4N2 (11742367_at) / RFU PRRT2 (11749266_a_at) / Fold change /veh PRRT2 (11749266_a_at) / RFU SNX32 (11753110_a_at) / Fold change /veh SNX32 (11753110_a_at) / RFU CDHR5 (11726645_a_at) / Fold change /veh CDHR5 (11726645_a_at) / RFU RCAN1 (11760418_a_at) / Fold change /veh RCAN1 (11760418_a_at) / RFU FAM167A (11723789_a_at) / Fold change /veh FAM167A (11723789_a_at) / RFU FAM26E (11764081_at) / Fold change /veh FAM26E (11764081_at) / RFU ISYNA1 (11749810_s_at) / Fold change /veh ISYNA1 (11749810_s_at) / RFU ACY1 (11761880_at) / Fold change /veh ACY1 (11761880_at) / RFU 11764098_at / Fold change /veh 11764098_at / RFU SAMD14 (11745864_x_at) / Fold change /veh SAMD14 (11745864_x_at) / RFU NPB (11741838_a_at) / Fold change /veh NPB (11741838_a_at) / RFU TMPRSS6 (11731388_a_at) / Fold change /veh TMPRSS6 (11731388_a_at) / RFU KRTAP10-2 (11738614_at) / Fold change /veh KRTAP10-2 (11738614_at) / RFU ARHGAP8 /// PRR5-ARHGAP8 (11727945_x_at) / Fold change /veh ARHGAP8 /// PRR5-ARHGAP8 (11727945_x_at) / RFU KRTAP5-7 /// NADSYN1 (11734609_at) / Fold change /veh KRTAP5-7 /// NADSYN1 (11734609_at) / RFU RASL12 (11751679_a_at) / Fold change /veh RASL12 (11751679_a_at) / RFU CDKN2B (11736163_a_at) / Fold change /veh CDKN2B (11736163_a_at) / RFU PRF1 (11729649_at) / Fold change /veh PRF1 (11729649_at) / RFU, ZNF638 /// ZNF638-IT1 / Fold change vs veh, ZNF638 /// ZNF638-IT1 / RFU, PANK3 / Fold change vs veh, PANK3 / RFU, SH3YL1 / Fold change vs veh, SH3YL1 / RFU, ZEB2 / Fold change vs veh, ZEB2 / RFU, NRIP1 / Fold change vs veh, NRIP1 / RFU, PTTG1IP / Fold change vs veh, PTTG1IP / RFU, CAPN2 / Fold change vs veh, CAPN2 / RFU, MED14 / Fold change vs veh, MED14 / RFU, SNORA58 / Fold change vs veh, SNORA58 / RFU, C1orf63 / Fold change vs veh, C1orf63 / RFU, LRRFIP1 / Fold change vs veh, LRRFIP1 / RFU, NDUFAF7 / Fold change vs veh, NDUFAF7 / RFU, SLC12A2 / Fold change vs veh, SLC12A2 / RFU, IBTK / Fold change vs veh, IBTK / RFU, ESF1 / Fold change vs veh, ESF1 / Fold change vs veh, TMEM50B / RFU, TAOK1 / Fold change vs veh, TAOK1 / RFU, ACBD3 / Fold change vs veh, ACBD3 / RFU, TMA16 / Fold change vs veh, TMA16 / RFU, RWDD3 / Fold change vs veh, RWDD3 / RFU, BCAT1 / Fold change vs veh, BCAT1 / RFU, EDEM3 / Fold change vs veh, EDEM3 / RFU, TMEM33 / Fold change vs veh, TMEM33 / RFU, WDR75 / Fold change vs veh, WDR75 / RFU, AHCTF1 / Fold change vs veh, AHCTF1 / RFU, TFRC / Fold change vs veh, TFRC / RFU, ZDHHC17 / Fold change vs veh, ZDHHC17 / RFU, NOM1 / Fold change vs veh, NOM1 / RFU, ARL8B / Fold change vs veh, ARL8B / RFU, ZBTB11 / Fold change vs veh, ZBTB11 / RFU, TAMM41 / Fold change vs veh, TAMM41 / RFU, KIAA1704 /// LOC100996395 / Fold change vs veh, KIAA1704 /// LOC100996395 / RFU, ING1 / Fold change vs veh, ING1 / RFU, TRMT61B / Fold change vs veh, TRMT61B / RFU, FUBP3 / Fold change vs veh, FUBP3 / RFU, TP53 / Fold change vs veh, TP53 / RFU, TNKS2 / Fold change vs veh, TNKS2 / RFU, ZFP14 / Fold change vs veh, ZFP14 / RFU, ACTR2 / Fold change vs veh, ACTR2 / RFU, PPP3R1 / Fold change vs veh, PPP3R1 / RFU, PIK3R1 / Fold change vs veh, PIK3R1 / RFU, HNRNPA1 / Fold change vs veh, HNRNPA1 / RFU, RNF170 / Fold change vs veh, RNF170 / RFU, ZNF28 / Fold change vs veh, ZNF28 / RFU, RNGTT / Fold change vs veh, RNGTT / RFU, OGT / Fold change vs veh, OGT / RFU, BRD1 / Fold change vs veh, BRD1 / RFU, MARS / Fold change vs veh, MARS / RFU, ZNF655 / Fold change vs veh, ZNF655 / RFU, FAHD1 / Fold change vs veh, FAHD1 / RFU, BDP1 / Fold change vs veh, BDP1 / RFU, LRRCC1 / Fold change vs veh, LRRCC1 / RFU, ARID1A / Fold change vs veh, ARID1A / RFU, ZNF146 / Fold change vs veh, ZNF146 / RFU, ZNF330 / Fold change vs veh, ZNF330 / RFU, GPN3 / Fold change vs veh, GPN3 / RFU, C9orf123 / Fold change vs veh, C9orf123 / RFU, N4BP2L2 / Fold change vs veh, N4BP2L2 / RFU, ARFIP1 / Fold change vs veh, ARFIP1 / RFU, FAM179B / Fold change vs veh, FAM179B / RFU, BCL10 / Fold change vs veh, BCL10 / RFU, UHRF1BP1L / Fold change vs veh, UHRF1BP1L / RFU, BET1 / Fold change vs veh, BET1 / RFU, CNOT2 / Fold change vs veh, CNOT2 / RFU, ZNF268 / Fold change vs veh, ZNF268 / Fold change vs veh, ZNF507 / RFU, DGCR2 / Fold change vs veh, DGCR2 / RFU, WDSUB1 / Fold change vs veh, WDSUB1 / Fold change vs veh, HSP90B1 /// MIR3652 / RFU, ADSS / Fold change vs veh, ADSS / RFU, GK / Fold change vs veh, GK / RFU, ZNF148 / Fold change vs veh, ZNF148 / RFU, TAF9 / Fold change vs veh, TAF9 / RFU, SLC1A5 / Fold change vs veh, SLC1A5 / RFU, SLMO2 / Fold change vs veh, SLMO2 / RFU, ABCC4 / Fold change vs veh, ABCC4 / RFU, LOC101060439 /// RAP1B / Fold change vs veh, LOC101060439 /// RAP1B / RFU, RFX7 / Fold change vs veh, RFX7 / RFU, GTPBP10 / Fold change vs veh, GTPBP10 / RFU, CNEP1R1 / Fold change vs veh, CNEP1R1 / RFU, BIVM-ERCC5 /// ERCC5 / Fold change vs veh, BIVM-ERCC5 /// ERCC5 / RFU, ILF3 / Fold change vs veh, ILF3 / RFU 11762660_at / Fold change /veh 11762660_at / RFU VCAN (11757783_s_at) / Fold change /veh VCAN (11757783_s_at) / RFU DDX43 (11728927_at) / Fold change /veh DDX43 (11728927_at) / RFU KRT8 (11758188_x_at) / Fold change /veh KRT8 (11758188_x_at) / RFU NKD1 (11759106_at) / Fold change /veh NKD1 (11759106_at) / RFU SRD5A1 (11742802_a_at) / Fold change /veh SRD5A1 (11742802_a_at) / RFU TPSAB1 /// TPSB2 (11721975_s_at) / Fold change /veh TPSAB1 /// TPSB2 (11721975_s_at) / RFU GSTM3 (11746129_a_at) / Fold change /veh GSTM3 (11746129_a_at) / RFU IL23R (11737362_x_at) / Fold change /veh IL23R (11737362_x_at) / RFU TMEM51 (11727254_a_at) / Fold change /veh TMEM51 (11727254_a_at) / RFU PIWIL2 (11732686_x_at) / Fold change /veh PIWIL2 (11732686_x_at) / RFU ORM1 (11744905_x_at) / Fold change /veh ORM1 (11744905_x_at) / RFU CCDC152 (11743942_at) / Fold change /veh CCDC152 (11743942_at) / RFU ECM1 (11717891_a_at) / Fold change /veh ECM1 (11717891_a_at) / RFU IL23R (11748794_a_at) / Fold change /veh IL23R (11748794_a_at) / RFU TNFAIP8L3 (11732012_x_at) / Fold change /veh TNFAIP8L3 (11732012_x_at) / RFU MBOAT4 (11741988_at) / Fold change /veh MBOAT4 (11741988_at) / RFU 11764193_at / Fold change /veh 11764193_at / RFU TMEM53 (11763286_at) / Fold change /veh TMEM53 (11763286_at) / RFU MAGEB2 (11727129_at) / Fold change /veh MAGEB2 (11727129_at) / RFU TMEM200A (11744735_a_at) / Fold change /veh TMEM200A (11744735_a_at) / RFU CCDC152 (11751479_a_at) / Fold change /veh CCDC152 (11751479_a_at) / RFU FAM211A (11726209_a_at) / Fold change /veh FAM211A (11726209_a_at) / RFU RGS16 (11746705_a_at) / Fold change /veh RGS16 (11746705_a_at) / RFU VCAN (11755009_s_at) / Fold change /veh VCAN (11755009_s_at) / RFU RHOB (11743442_s_at) / Fold change /veh RHOB (11743442_s_at) / RFU RGS16 (11720943_a_at) / Fold change /veh RGS16 (11720943_a_at) / RFU RGS16 (11720944_at) / Fold change /veh RGS16 (11720944_at) / RFU, VPS4B / Fold change vs veh, VPS4B / RFU, CREB1 / Fold change vs veh, CREB1 / RFU, DNAJC13 / Fold change vs veh, DNAJC13 / RFU, GNAQ / Fold change vs veh, GNAQ / RFU, CDK5R1 / Fold change vs veh, CDK5R1 / RFU, ZRANB3 / Fold change vs veh, ZRANB3 / RFU, CUL4A / Fold change vs veh, CUL4A / RFU, CCNY / Fold change vs veh, CCNY / RFU, UFL1 / Fold change vs veh, UFL1 / RFU, COG3 / Fold change vs veh, COG3 / RFU, DIAPH2 / Fold change vs veh, DIAPH2 / RFU, SKA2 / Fold change vs veh, SKA2 / RFU, AFF3 / Fold change vs veh, AFF3 / RFU, LMF1 / Fold change vs veh, LMF1 / RFU, IPO11 / Fold change vs veh, IPO11 / RFU, DFFB / Fold change vs veh, DFFB / RFU, FOXP1 / Fold change vs veh, FOXP1 / RFU, CARD8 / Fold change vs veh, CARD8 / RFU, STRN3 / Fold change vs veh, STRN3 / RFU, ADK / Fold change vs veh, ADK / RFU, RASSF2 / Fold change vs veh, RASSF2 / RFU, WIPF1 / Fold change vs veh, WIPF1 / RFU, LARP1B / Fold change vs veh, LARP1B / RFU, RASA1 / Fold change vs veh, RASA1 / RFU, RB1 / Fold change vs veh, RB1 / RFU, PPFIA1 / Fold change vs veh, PPFIA1 / RFU, MAT2A / Fold change vs veh, MAT2A / RFU, CCT5 / Fold change vs veh, CCT5 / RFU, WDR92 / Fold change vs veh, WDR92 / RFU, CUX1 / Fold change vs veh, CUX1 / RFU, TTC7A / Fold change vs veh, TTC7A / RFU, TMEM135 / Fold change vs veh, TMEM135 / RFU, DEPTOR / Fold change vs veh, DEPTOR / RFU, CPM / Fold change vs veh, CPM / RFU, DNAJB6 / Fold change vs veh, DNAJB6 / RFU, CACNA2D3 / Fold change vs veh, CACNA2D3 / RFU, DTX4 / Fold change vs veh, DTX4 / RFU, TFCP2 / Fold change vs veh, TFCP2 / RFU, GMCL1 /// GMCL1P1 / Fold change vs veh, GMCL1 /// GMCL1P1 / RFU, AEBP2 / Fold change vs veh, AEBP2 / RFU, SNHG1 /// SNORD22 /// SNORD25 /// SNORD26 /// SNORD27 /// SNORD28 /// SNORD29 /// SNORD31 / Fold change vs veh, SNHG1 /// SNORD22 /// SNORD25 /// SNORD26 /// SNORD27 /// SNORD28 /// SNORD29 /// SNORD31 / Fold change (Aza/veh), C12orf56 (ProbeSet 11735607_a_at) / Fold change (ACY-1035/veh), C12orf56 (ProbeSet 11735607_a_at) / Fold change (Aza/veh), FGFR1OP (ProbeSet 11751329_s_at) / Fold change (ACY-1035/veh), FGFR1OP (ProbeSet 11751329_s_at) / Fold change (Aza/veh), VPS36 (ProbeSet 11739960_a_at) / Fold change (ACY-1035/veh), VPS36 (ProbeSet 11739960_a_at) / RFU SYPL1 (11715823_x_at) / Fold change /veh SYPL1 (11715823_x_at) / RFU IGFBP7 (11715501_s_at) / Fold change /veh IGFBP7 (11715501_s_at) / RFU REEP3 (11722064_at) / Fold change /veh REEP3 (11722064_at) / RFU IGLL1 (11728026_x_at) / Fold change /veh IGLL1 (11728026_x_at): dose or concentration left out as unconfirmed
Details: ProbeSet 11733108_at; LIST D

Question: With `Nc1ccc(-c2cccs2)cc1NC(=O)c1ccc2c(c1)cc(C1CC1)n2CCN1CCOCC1` [ACY-1035] as the compound, how does the “Fold change vs veh, GNAQ” value read?
Answer: 0.91
